Columns and labels:
[1] = test system: bioengineered neuronal organoids (BENOs) from human pluripotent stem cells; assay: qPCR transcript analysis of neuronal and glia markers in BENOs; type: cell-based; set-up: PAX6 transcripts: dose or concentration left out as unconfirmed
Description: (§1) In initial attempts, single SMAD pathway inhibition (using noggin) was employed to elicit neural induction, along with the addition of retinoic acid (RA). In the present study, it was tested whether dual SMAD signaling pathway inhibition using noggin and SB431542 during the neural induction phase (days 0-8) might further enhance neurogenesis, e.g., at day 28. Accordingly, NCM containing only noggin, or NCM containing noggin and SB431542, were each investigated.
Numerous conventional protocols in the literature employ neurotrophic factors BDNF and GDNF to improve neuronal survival at the differentiation and maturation stages. Therefore, it was tested whether the addition of BDNF (20 ng/ml) and GDNF (10 ng/ml) to NPEM during culture days 10-28 would result in a higher number of maturing neurons by day 28 (FIG. 4). […]
In all protocols, the differentiation was carried out in Neurobasal™ medium supplemented with B27 and N2. hiPS cells were subjected to neuroectoderm induction (days 0-8) under dual SMAD inhibition (noggin & SB431542) and additional retinoic acid (RA) supplementation to mimic signaling that occurs during embryonic neurogenesis. In protocol 2, the proliferative effects of FGF-2 (day 8-15) in neural progenitor cells (NPCs) were tested. In protocol 3, the effect of Notch inhibitor DAPT in neuronal commitment of NPCs (day 15-28) was tested. In protocol 4, the proliferative effects of TGF-beta 1 for glia cells (day 8-28) were tested. In protocol 5, TGF-beta 1 and DAPT treatments were combined in order to test whether development of glia and neurons can be enhanced simultaneously.
In order to assess the neurogenic and gliogenic potential afforded by the different protocols, tissues were collected at days −1, 0, 3, 8, 15, 28 and 40 (3-6 tissues/time point). Since the treatment until day 8 was identical for all protocols, tissues until that time point were only collected from protocol 1. […] Since treatment with DAPT (protocols 3 and 5) was evidently supporting neurogenesis and TGF-beta 1 appeared to support gliogenesis, the time course analysis was extended for protocol 3 (DAPT) and protocol 5 (DAPT and TGF-beta 1).

[2] = test system: bioengineered neuronal organoids (BENOs) from human pluripotent stem cells; assay: whole mount immunofluorescence (neurofilament) analysis of BENOs; type: cell-based
Description: as §1
Consequently, it appears advantageous to increase the amount of neural progenitor cells (NPCs) inside the tissue by treating the organoids with FGF-2 (days 8-15). This corresponds to the use of NPEM in the above protocol. To test whether the use of FGF-2 is favorable, tissues (3000 cell/μl) were treated with 10 ng/ml FGF-2 at two different time-points; day −2 to day 0 (before neural induction at the stem cell stage), and day 8 to day 15 at the NPC stage (FIG. 3B).

[3] = test system: GABAergic network of BENOs (GABAR); assay: calcium imaging of BENO neuronal network under GABAergic inhibition; type: cell-based, human; conditions: for synchrony of the same neurons upon inhibitor washout: after picrotoxin 58 μM and saclofen 330 μM; for synchrony of previously spontaneously synchronized neurons under GABAR inhibition: picrotoxin 58 μM and saclofen 330 μM applied together, BENOs days 30-60, n=3, 4 pairs of cells
Description: To test neuronal network activity, BENOs (days 30-60) were subjected to calcium imaging under GABAergic inhibition (carried out using picrotoxin, 58 μM; saclofen, 330 μM; n=3). GABAR inhibition led to an asynchrony of previously spontaneously synchronized neurons (4 pairs of cells).

[4] = protocols 3 and 5, DAPT day 15-28, time course
[5] = SB431542 added to noggin during neural induction (days 0-8) vs noggin only, n=4 tissues/group
[6] = BDNF (20 ng/ml) and GDNF (10 ng/ml) added together, culture days 10-28, analysed day 28

C[C@H](NC(=O)Cc1cc(F)cc(F)c1)C(=O)NC(C(=O)OC(C)(C)C)c1ccccc1 (stereo partly shown) [DAPT]
PAX6 transcripts ([1]; DAPT added to NDM, day 15-28): increase
amount of the neuronal marker GABBR2 [1, 4]: significantly increased
amount of the neuronal marker GRIN1 [1, 4]: significantly increased
amount of the neuronal marker MAP2 [1, 4]: significantly increased
amount of the neuronal marker PAX 6 [1, 4]: significantly increased

NC(=O)c1ccc(-c2nc(-c3ccc4c(c3)OCO4)c(-c3ccccn3)[nH]2)cc1 [SB431542]
increase of neuronal marker MAP2 (qPCR) [1, 5]: 21 fold
increase of neuronal marker PAX6 (qPCR) [1, 5]: 21 fold
amount of maturing neurons (immunofluorescence and PAX6/MAP2 transcripts) ([2]; dual SMAD inhibition, noggin and SB431542, days 0-8, vs noggin only, day 28): clearly observed to be advantageous

NCC(CS(=O)(=O)O)c1ccc(Cl)cc1 (stereo not shown) [saclofen]
synchrony of the same neurons upon inhibitor washout [3]: re-synchronized
synchrony of previously spontaneously synchronized neurons under GABAR inhibition [3]: asynchrony

FGF-2: member of the fibroblast growth factor family, encoded by the FGF2 gene
level of different markers (OCT4, GFAP, PAX6, MAP2, GRIN1, GABBR2) at any time point ([1]; protocol 2, FGF-2 day 8-15, time course days -1 to 40): did not significantly influence
neurofilament staining, double treatment vs single treatment ([2]; 10 ng/ml FGF-2, day -2-0 and days 8-15 vs days 8-15 only): did not seem to be advantageous
neurofilament staining, advantage compared to untreated tissues ([2]; 10 ng/ml FGF-2, day -2 to day 0 (stem cell stage), read at day 28): did not appear to provide any advantage
neuronal network complexity at day 28 (IF whole mount staining of neurofilament) ([2]; 10 ng/ml FGF-2, days 8-15): more complex neuronal networks
proliferation of the cells including NPCs ([2]; 10 ng/ml FGF-2, days 8-15 (NPC stage)): markedly induced proliferation

TGF-beta 1: transforming growth factor beta 1 (Peprotech)
amount of the glia marker GFAP ([1]; protocols 4 and 5, TGF-beta 1 day 8-28, by day 40, vs the other 3 protocols): higher amounts

picrotoxin
synchrony of the same neurons upon inhibitor washout [3]: re-synchronized
synchrony of previously spontaneously synchronized neurons under GABAR inhibition [3]: asynchrony

B1: BDNF: neurotrophic factor used to improve neuronal survival (protein, UniProt P23560 129-247, looked up)
Neurotrophic factor BDNF: HSDPARRGELSVCDSISEWVTAADKKTAVDMSGGTVTVLEKVPVSKGQLKQYFYETKCNPMGYTKEGCRGIDKRHWNSQCRTTQSYVRALTMDSKKRIGWRFIRIDTSCVCTLTIKRGR
modifications: Neurotrophic factor BDNF
amount of the maturation marker MAP2 [1, 6]: do not increase
amount of the neuronal marker PAX 6 [1, 6]: do not increase

B2: GDNF: neurotrophic factor used to improve neuronal survival (protein, UniProt P39905 78-211, looked up)
Glial cell line-derived …: SPDKQMAVLPRRERNRQAAAANPENSRGKGRRGQRGKNRGCVLTAIHLNVTDLGLGYETKEELIFRYCSGSCDAAETTYDKILKNLSRNRRLVSDKVGQACCRPIAFDDDLSFLDDNLVYHILRKHSAKRCGCI
amount of the maturation marker MAP2 [1, 6]: do not increase
amount of the neuronal marker PAX 6 [1, 6]: do not increase

Reference: patent US20250067727A1, “BIOENGINEERED NEURONAL ORGANOIDS (BENOS) AND USES THEREOF” (Georg-August-Universität Göttingen Stiftung Öffentlichen …, priority 2017, published 2025)
